The text below walks through data of ChEMBL document CHEMBL1201862, “PubChem BioAssay data set” (2004).

Among the test systems are 786-0; ACHN; BT-549; EKVX; HCT-116; IGROV-1; MDA-N; MOLT-4; Malme-3M; NCI-H226; NCI-H460; SK-MEL-2; SK-OV-3; SN12C; SNB-19; SR; T47D; UACC-62; UO-31; HCC 2998.
Common to all, as to experiment: NCI tumour cell line growth inhibition, 48 h

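Each compound was tested at five concentrations against cells in 96-well plates for 48 hours. Here, GI50 denotes the concentration required for 50% inhibition of growth.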 Active and inactive are the calls of the source. Rule as the data show it: active = GI50 up to about 1.1 µM and inactive = higher. Bounds are passed on as bounds.

As to `CC(=O)NC1CONC1=O` (centres undefined), the GI50 with 786-0, in the assay with ACHN, with BT-549, in the assay with EKVX, in the assay with HCT-116 and with IGROV-1 was > 100 µM (inactive) throughout. Also, the GI50 in the assay on MDA-N, in the assay with MOLT-4, with Malme-3M, in the assay with NCI-H226, with NCI-H460 and with SK-MEL-2 was > 100 µM (inactive) throughout. The GI50 with SK-OV-3, with SN12C, in the assay with SNB-19, in the assay with SR, in the assay with T47D and with UACC-62 was > 100 µM (inactive) throughout. Further, in the assay with UO-31, the GI50 was > 100 µM (inactive).
For `CC1(C)CC2C(=O)c3ccccc3NC2c2ccccc21` (centres undefined), the GI50 was 3.94 µM (inactive) with 786-0; 14.4 µM (inactive) in the assay with ACHN; 10.8 µM (inactive) with BT-549; 43.2 µM (inactive) with EKVX; 5.86 µM (inactive) with HCC 2998; 2.99 µM (inactive) in the assay on HCT-116. Also, the GI50 with IGROV-1 was 7.13 µM (inactive); with MDA-N it was 0.32 µM (active); with MOLT-4, 0.735 µM (active); with Malme-3M, 4.99 µM (inactive); in the assay on NCI-H226, 11.9 µM (inactive); in the assay with NCI-H460, 3.12 µM (inactive). Besides, the GI50 with SN12C was 5.79 µM (inactive); in the assay on SNB-19, 5.79 µM (inactive); in the assay with T47D, 4.51 µM (inactive); with UACC-62, 3.9 µM (inactive); in the assay with UO-31 it was 6.03 µM (inactive).
For `O=C1/C(=C/c2ccc(OC(=O)c3ccc(Cl)cc3)cc2)CCC/C1=C\c1ccc(OC(=O)c2ccc(Cl)cc2)cc1`, the GI50 was 55 µM (inactive) with 786-0; > 100 µM (inactive) with ACHN; > 100 µM (inactive) with BT-549; > 100 µM (inactive) with EKVX; > 100 µM (inactive) in the assay on HCC 2998; > 100 µM (inactive) in the assay on HCT-116. Besides, the GI50 in the assay with IGROV-1, in the assay with MDA-N, with MOLT-4, in the assay on NCI-H460, in the assay on SK-MEL-2 and in the assay on SN12C was > 100 µM (inactive) throughout. In addition, the GI50 in the assay with SNB-19, in the assay with SR, with T47D, in the assay with UACC-62 and in the assay with UO-31 was > 100 µM (inactive) throughout.
Take `CC(=O)OC1=CC2=CC[C@H]3[C@@H]4CCC(=O)[C@@]4(C)CC(=O)[C@]3(S)[C@@]2(C)CC1`: the GI50 with 786-0 is 27.8 µM (inactive); with ACHN, 34.2 µM (inactive); in the assay with BT-549, 35 µM (inactive); in the assay with EKVX it was > 100 µM (inactive); in the assay on HCC 2998, 31.6 µM (inactive); in the assay on HCT-116, 21.7 µM (inactive). Besides, the GI50 with IGROV-1 was 27 µM (inactive); in the assay with MDA-N, 31.7 µM (inactive); in the assay on MOLT-4 it was 17.4 µM (inactive); in the assay on Malme-3M, 22.8 µM (inactive); with NCI-H460, 25.2 µM (inactive); in the assay with SK-MEL-2 it was 47.1 µM (inactive). Further, the GI50 in the assay with SK-OV-3 was 65.6 µM (inactive); in the assay on SN12C, 37.6 µM (inactive); in the assay with SNB-19, 79.8 µM (inactive); in the assay on SR, 23.6 µM (inactive); in the assay with T47D it was 34.8 µM (inactive); in the assay on UACC-62 it was 26.1 µM (inactive). Further, the GI50 in the assay on UO-31 was 51.1 µM (inactive).
As for `C/C(=C/C(=O)Nn1c(Cc2ccccc2)n[nH]c1=O)C(=O)O`, the GI50 in the assay on 786-0, in the assay on ACHN, in the assay on BT-549, with EKVX, with HCC 2998 and with HCT-116 was > 100 µM (inactive) each time. In addition, the GI50 in the assay with IGROV-1, in the assay on MDA-N, in the assay on MOLT-4, in the assay with Malme-3M, with NCI-H226 and with NCI-H460 was > 100 µM (inactive) each time. The GI50 with SK-MEL-2, in the assay with SK-OV-3, with SN12C, in the assay with SNB-19, in the assay on T47D and in the assay on UACC-62 was > 100 µM (inactive) each time. Also, in the assay on UO-31, the GI50 was > 100 µM (inactive).
Take `COCN(CCC1=CCCCC1)C(=O)OC`: the GI50 in the assay with 786-0 was > 100 µM (inactive); in the assay on ACHN, > 100 µM (inactive); in the assay on BT-549, > 100 µM (inactive); with EKVX, > 100 µM (inactive); with HCC 2998, > 100 µM (inactive); in the assay with HCT-116, 41.4 µM (inactive). Also, the GI50 is > 100 µM (inactive) in the assay on IGROV-1; > 100 µM (inactive) with MDA-N; > 100 µM (inactive) in the assay on MOLT-4; > 100 µM (inactive) with Malme-3M; 29.9 µM (inactive) with NCI-H460; > 100 µM (inactive) in the assay with SK-MEL-2. Further, the GI50 in the assay with SK-OV-3 is > 100 µM (inactive); with SNB-19 it was > 100 µM (inactive); in the assay on SR, > 100 µM (inactive); with T47D, 89.1 µM (inactive); in the assay with UACC-62 it was > 100 µM (inactive); with UO-31 it was 46.3 µM (inactive).
For the molecule `CCOP(C)(=O)C(N)Cc1ccc(OC)c(OC)c1` (centres undefined), the GI50 in the assay with 786-0, in the assay on ACHN, in the assay on BT-549, in the assay with EKVX, in the assay on HCC 2998 and in the assay on HCT-116 was > 100 µM (inactive) each time. The GI50 in the assay on IGROV-1, with MDA-N, with MOLT-4, with Malme-3M, in the assay on NCI-H226 and in the assay on NCI-H460 was > 100 µM (inactive) each time. For the same molecule, the GI50 in the assay on SK-OV-3, with SN12C, in the assay on SNB-19, with SR, with T47D and in the assay on UACC-62 was > 100 µM (inactive) throughout. In addition, the GI50 in the assay with UO-31 is > 100 µM (inactive).
In the case of `C/C(O)=C/C(=O)c1[nH]c(C(=O)O)cc1C1CCN(Cc2ccccc2)C1=O` (centres undefined), the GI50 is 21 µM (inactive) in the assay on 786-0; 28.6 µM (inactive) in the assay on ACHN; 22.6 µM (inactive) in the assay on BT-549; 21.3 µM (inactive) in the assay with EKVX; 13.2 µM (inactive) in the assay on HCC 2998; 24.3 µM (inactive) with HCT-116. Moreover, the GI50 in the assay with IGROV-1 was 25.3 µM (inactive); in the assay with MDA-N it was 17.2 µM (inactive); with MOLT-4, 20 µM (inactive); in the assay with Malme-3M it was 20 µM (inactive); in the assay with NCI-H460, 15.8 µM (inactive); with SK-MEL-2, 22.8 µM (inactive). In addition, the GI50 with SK-OV-3 is 22.8 µM (inactive); in the assay on SNB-19, 22.7 µM (inactive); with T47D, 15.7 µM (inactive); with UACC-62, 18.5 µM (inactive); in the assay with UO-31 it was 14.2 µM (inactive).
As for `COC(=O)c1cc(/C=C\c2cc(OC)ccc2OC)ccc1OC`, the GI50 is 35.1 µM (inactive) with 786-0; 32.1 µM (inactive) with ACHN; 31.2 µM (inactive) with BT-549; 26.1 µM (inactive) with EKVX; 22.4 µM (inactive) with HCC 2998; 32.4 µM (inactive) with HCT-116. In addition, the GI50 with IGROV-1 is 13.7 µM (inactive); in the assay with MDA-N, 17.7 µM (inactive); with MOLT-4, 6.75 µM (inactive); in the assay on NCI-H460, 51.2 µM (inactive); in the assay with SK-MEL-2, 24.9 µM (inactive); in the assay on SK-OV-3, 37.3 µM (inactive). Further, the GI50 with SN12C was 38.2 µM (inactive); in the assay on SNB-19, 34 µM (inactive); with SR, 10.4 µM (inactive); in the assay with T47D, 18.7 µM (inactive); with UACC-62 it was 22.6 µM (inactive); in the assay with UO-31, 30.3 µM (inactive).
Regarding `COc1cc2c(c(OC)c1OC)-c1ccc(SC)c(=O)cc1[C@@H](OC(C)=O)CC2`, the GI50 with 786-0, in the assay with ACHN, in the assay on BT-549, in the assay with HCC 2998, in the assay on HCT-116 and in the assay with IGROV-1 was < 0.01 µM (active) each time. Moreover, the GI50 in the assay on MDA-N, in the assay with MOLT-4, in the assay on Malme-3M, with NCI-H226, in the assay with NCI-H460 and in the assay with SK-MEL-2 was < 0.01 µM (active) each time. The GI50 in the assay with SN12C is < 0.01 µM (active); with SNB-19, < 0.01 µM (active); in the assay with T47D it was > 100 µM (inactive); in the assay on UACC-62, < 0.01 µM (active); with UO-31 it was < 0.01 µM (active).
For `C/C(=N\Nc1nc2ccccc2o1)c1cc2ccccc2cn1`, the GI50 in the assay with 786-0 was < 0.01 µM (active); in the assay on ACHN, < 0.01 µM (active); in the assay on BT-549, 0.173 µM (active); in the assay on EKVX, < 0.01 µM (active); in the assay with HCT-116, < 0.01 µM (active); with IGROV-1, < 0.01 µM (active). Moreover, the GI50 in the assay on MDA-N is 0.942 µM (active); in the assay with MOLT-4, < 0.01 µM (active); in the assay with Malme-3M, < 0.01 µM (active); in the assay on NCI-H226, < 0.0208 µM (active); in the assay with NCI-H460, 0.0311 µM (active); in the assay with SK-MEL-2, 2.98 µM (inactive). The GI50 in the assay on SK-OV-3 was 0.0474 µM (active); in the assay on SN12C it was < 0.01 µM (active); in the assay with SNB-19, 0.547 µM (active); in the assay with SR, 0.112 µM (active); in the assay with T47D, < 0.01 µM (active); in the assay with UACC-62, 0.0775 µM (active). The GI50 in the assay on UO-31 is < 0.0147 µM (active).
